Reference: the SangsterLogP compilation

Key:
[1] = method code SF-HPLC, from DOI: 10.1023/a:1016462801968, PMID: 3334410
[2] = not given; remark: listed apart in the source
[3] = not given; remark: listed apart in the source
[4] = method code SF-HPLC, from DOI: 10.1016/j.bmcl.2010.02.057, PMID: 20231095; conditions: pH 7.4
[5] = not given; remark: listed apart in the source
[6] = method code SF-AS, from DOI: 10.1016/0021-9673(94)89049-8; conditions: pH 7.0
[7] = method code SF-AS, from DOI: 10.1111/j.2042-7158.1979.tb13606.x, PMID: 41067; conditions: pH 1.2
[8] = method code SF-AS, from DOI: 10.1007/bf01648987
[9] = not given; remark: listed apart in the source
[10] = method code SF, from DOI: 10.1016/0378-5173(86)90155-9; conditions: pH 7.0
[11] = method code SF, from PMID: 718082
[12] = not given; remark: listed apart in the source

**Q.** Which logP [1] does the source give for `CCC(=O)OCC(COC(=O)CC)OCn1cnc2c(=O)[nH]c(N)nc21` here?
**A.** -0.14

**Q.** Which logP does the source give for `CC(=O)OC[C@H]1S[C@@H](n2ccnc2[N+](=O)[O-])[C@H](OC(C)=O)[C@@H](OC(C)=O)[C@@H]1OC(C)=O` here?
**A.** 0.63

**Q.** For `CC1(C)[C@H](C(=O)OCc2coc(Cc3ccccc3)c2)[C@@H]1/C=C1/CCSC1=O`, which logP [2] is on record?
**A.** 4.31

**Q.** Which logP [2] does the source give for `COP(N)(=S)Oc1ccccc1C(=O)OC(C)C` (stereo unspecified) here?
**A.** 2.7

**Q.** Which logP [3] does the source give for `CC(N)CCc1ccccc1` (stereo unspecified) here?
**A.** 2.12

**Q.** Which logD [4] does the source give for `CC(C)C(=O)OCOC(=O)c1sc2cc(O)c(O)cc2c1Cl` here?
**A.** 2.91

**Q.** Which logP [5] does the source give for `CN1CCc2cccc(Cl)c2CC1` here?
**A.** 2.92

**Q.** With `CCCCNCc1ccccc1` as the compound, how does the logP [3] read?
**A.** 2.59

**Q.** With `Nc1nc(Cl)nc2c1ncn2C1OC(CO)C(O)C1O` (stereo unspecified) as the compound, how does the logD [6] read?
**A.** -0.37

**Q.** Which logP [1] does the source give for `CCCC(=O)OCC(COC(=O)CCC)OCn1cnc2c(=O)[nH]c(N)nc21` here?
**A.** 0.83

**Q.** Which logD [7] does the source give for `CCOc1ccc(CC(=O)O)cc1` here?
**A.** 1.95

**Q.** Which logP [8] does the source give for `CC(=O)OC(OC(C)=O)c1ccccc1` here?
**A.** 1.62

**Q.** Which logP [3] does the source give for `CCNCc1ccccc1` here?
**A.** 1.82

**Q.** With `O=[N+]([O-])c1nccn1[C@@H]1S[C@H](CO)[C@@H](O)[C@H](O)[C@H]1O` as the compound, how does the logP read?
**A.** -0.66

**Q.** With `C=CCN1CCc2cccc(Cl)c2CC1` as the compound, how does the logP [5] read?
**A.** 3.3

**Q.** For `O=C(O)CCc1ccc(O)cc1`, which logD [7] is on record?
**A.** 1.16

**Q.** With `COC(=O)OCC(COC(=O)OC)OCn1cnc2c(=O)[nH]c(N)nc21` as the compound, how does the logP [1] read?
**A.** -0.88

**Q.** For `O=C(O)[C@H]1O[C@@H](Oc2ccccc2)[C@H](O)[C@@H](O)[C@@H]1O`, which logP [9] is on record?
**A.** 0.73

**Q.** With `CSCCCOc1ccc([N+](=O)[O-])cc1` as the compound, how does the logD [10] read?
**A.** 3.24

**Q.** With `COc1ccc(CC(=O)O)cc1` as the compound, how does the logD [7] read?
**A.** 1.48

**Q.** For `NC(=O)CCN1CCc2cccc(Cl)c2CC1`, which logP [5] is on record?
**A.** 1.64

**Q.** With `CC(=O)Nc1c(I)c(NC(C)=O)c(I)c(C(=O)O)c1I` as the compound, how does the logP [11] read?
**A.** -1.05

**Q.** For `Nc1nc(Cl)nc2c1ncn2[C@H]1C[C@H](O)[C@@H](CO)O1`, which logD [6] is on record?
**A.** 0.03

**Q.** Which logP does the source give for `O=[N+]([O-])c1nccn1[C@@H]1O[C@H](CO)[C@@H](O)[C@H](O)[C@H]1O` here?
**A.** -1.4

**Q.** With `COc1ccc(CCCC(=O)O)cc1` as the compound, how does the logD [7] read?
**A.** 2.33

**Q.** Which logD [10] does the source give for `NC(=O)CCCCOC(=O)c1ccccc1` here?
**A.** 1.39

**Q.** For `CNC(=O)ON=C(CS(C)=O)C(C)(C)C` (stereo unspecified), which logP [2] is on record?
**A.** 2.75

**Q.** For `N#CC(C#N)=NNc1ccc(OC(F)(F)F)cc1`, which logD ([12]; pH 3.0) is on record?
**A.** 3.68

**Q.** Which logD [10] does the source give for `CS(=O)(=O)CCCOc1ccc([N+](=O)[O-])cc1` here?
**A.** 1.1

**Q.** Which logP [9] does the source give for `CCOC(=O)Oc1ccccc1` here?
**A.** 2.18

**Q.** Which logP [11] does the source give for `CNC(=O)c1c(I)c(NC(C)=O)c(I)c(C(=O)O)c1I` here?
**A.** -1.15

**Q.** With `CCN(CCOC(C)=O)c1ccccc1` as the compound, how does the logP [8] read?
**A.** 2.04

**Q.** With `N#CC(C#N)=NNc1ccc(/N=N/c2ccccc2)cc1` as the compound, how does the logD ([12]; pH 3.0) read?
**A.** 4.25

**Q.** Which logP [9] does the source give for `CC(C)(C)OC(=O)Oc1ccccc1` here?
**A.** 3.02

**Q.** Which logP [1] does the source give for `Nc1nc2c(ncn2COC(CO)CO)c(=O)[nH]1` here?
**A.** -1.66

**Q.** Which logD [4] does the source give for `CC(OC(=O)c1sc2cc(O)c(O)cc2c1Cl)OC(=O)C(C)C` (stereo unspecified) here?
**A.** 3.02

**Q.** For `CC(=O)OC[C@H]1O[C@@H](n2ccnc2[N+](=O)[O-])[C@H](OC(C)=O)[C@@H](OC(C)=O)[C@@H]1OC(C)=O`, which logP is on record?
**A.** 0.52

**Q.** With `N#CC(C#N)=NNc1ccc(CCCl)cc1` as the compound, how does the logD ([12]; pH 7.2) read?
**A.** 2.44

**Q.** Which logP [8] does the source give for `CC(=O)Oc1cccc2ccccc12` here?
**A.** 2.78

**Q.** Which logD [4] does the source give for `CCCOC(=O)c1sc2cc(O)c(O)cc2c1Cl` here?
**A.** 2.45

**Q.** Which logP [11] does the source give for `OC[C@H]1O[C@@H](Oc2cc(O[C@@H]3O[C@H](CO)[C@@H](O)[C@H](O)[C@H]3O)c(I)c(O[C@@H]3O[C@H](CO)[C@@H](O)[C@H](O)[C@H]3O)c2I)[C@H](O)[C@@H](O)[C@@H]1O` here?
**A.** -2.22

**Q.** With `CC(=O)N(CCCl)c1ccc(CC(=O)O)cc1` as the compound, how does the logP [8] read?
**A.** 1.2

**Q.** With `CC(=O)Nc1ccc(NN=C(C#N)C#N)cc1` as the compound, how does the logD ([12]; pH 3.0) read?
**A.** 1.83

**Q.** Which logD [10] does the source give for `NS(=O)(=O)CCCOc1ccc([N+](=O)[O-])cc1` here?
**A.** 0.97

**Q.** With `COC(=O)c1sc2cc(O)c(O)cc2c1Cl` as the compound, how does the logD [4] read?
**A.** 1.51

**Q.** Which logP [2] does the source give for `COc1ccc(C(OC(C)=O)C(Cl)(Cl)Cl)cc1` (stereo unspecified) here?
**A.** 3.72

**Q.** For `O=C(O)CCCCCOC(=O)Oc1ccccc1`, which logP [9] is on record?
**A.** 2.56

**Q.** With `CNC(=O)c1c(I)c(NC(C)=O)c(I)c(OCC2OC(O)C(O)C(O)C2O)c1I` (stereo unspecified) as the compound, how does the logP [11] read?
**A.** -1.26

**Q.** For `Nc1ncnc2c1ncn2[C@@H]1O[C@H](CCl)[C@@H](O)[C@H]1O`, which logD [6] is on record?
**A.** -0.06

**Q.** For `Nc1nc(F)nc2c1ncn2[C@@H]1O[C@H](CO)[C@@H](O)[C@H]1O`, which logD [6] is on record?
**A.** -0.8

**Q.** For `CC(C)NCc1ccccc1`, which logP [3] is on record?
**A.** 1.83
